Test results from US20240426838A1, “CRISPR/CAS-Associated Detection Assays, Methods and Kits” (BioPoint Pty Limited, priority 2021, published 2024).

Tests used:
Format in all cases: biochemical
[1] = system: Cas12a; assay: Evaluation of trans-cleavage activity of Cas12a with chemical enhancers (fluorescence readout); conditions: for fluorescence intensity, fold of that in the control: optimised concentrations, Texas Red ssDNA target, incubation time 2 h; for performance with ssRNA target: ssRNA target (FAM), 37° C. incubation; for optimum concentration leading to the highest trans-cleavage rate: sulfhydryl reductant
Description: For all trans-cleavage activity evaluation experiments, the CRISPR/Cas12a reaction mixture was prepared as follows: 1 μL 100 μM ([…]) of Cas12a protein was gently mixed with 5 μL 20 μM ([…]) gRNA in 3.6 mL 1×NEB 2.1 buffer. […] Different chemical enhancers (sulfhydryl reductant and surfactant) were first dissolved in MilliQ water to produce high concentration storage solutions, then a certain amount of storage solution was added into the standard CRISPR/Cas12a reaction mixture to realize the final reaction mixture with defined concentration of enhancers.
5 μL 1 μM single strand trigger DNA was applied in 100 μL prepared CRISPR/Cas12a reaction mixture for starting the CRISPR reaction process. SpectraMax i3x multi-Mode Microplate Reader (Molecular devices) was applied for the detection of fluorescence readout.

[2] = system: Cas12a; assay: Optimization of chemical-based reaction buffer, RNA reporter based CRISPR/Cas12a system; conditions: chemicals added in NEB2.1 buffer; DTT 10 mM
Description: 10 μL 10 μM ([…]) Cas12a protein was gently mixed with 5 μL 20 μM ([…]) gRNA in 3.6 mL 1×NEB 2.1 buffer, which was diluted by Milli-Q water. Then, 6 μL 100 μM (0.6 nmol) ssRNA linked fluorescent reporter was added and well mixed to form the final reaction mixture. The prepared reaction mixture was kept on ice before use.
Three different chemicals were applied in the reaction buffer system, and the concentration of 1,4-dithiothreitol (DTT) was 10 mM, the concentration of Tris(2-carboxyethyl)phosphine hydrochloride (TCEP) was 0.5 mM, and the concentration of Polyvinyl alcohol (PVA) was 10 mg/mL.

[3] = system: Cas12a; assay: Electrophoretic mobility shift assay of chemical enhancers on CRISPR/Cas12a; conditions: optimal concentrations (10 mM DTT, 500 μM TCEP, 1% PVA, 0.04% Brij23)
Description: This is because fluorescence process may be independently affected by chemical enhancers used here. Briefly, the standard CRISPR/Cas12a reaction mixture was prepared as per point 1 above, then chemical enhancers were added at concentrations determined to be optimal (10 mM DTT, 500 μM TCEP, 1% PVA, 0.04% Brij23), and the same volume of 1×PBS was also used as the control. […] Alternatively, 50 μL of CRISPR/Cas12a and the chemical enhancer mixture was firstly mixed with 1 μL different concentrations of target ssDNA (5 μM, 10 μM, 15 μM, 20 μM), and then either 1 μL 1 μM triggering ssDNA was added or 1 μL PBS as control. The reaction mixtures were incubated at 26° C. for 60 mins, and then deactivated at 65° C. for 15 mins. Afterwards, 10 μL of each deactivated reaction mixture was mixed with 2 μL 6× loading dye and loaded onto 3% Agarose gel with 1× GelRed nucleic acid dye for voltage-constant electrophoresis at 60V for 100 mins.

[4] = system: Cas12a; assay: Trans-cleavage ability of antibody-Cas12a/gRNA (BAC) conjugate with ssDNA reporters; conditions: for reaction time to reach desired fluorescent signal intensity, faster than control: BAC conjugate, 10 mM DTT
Description: Firstly, 2 uL 100 μM (30 ug) Cas12a protein and 10 uL 20 μM gRNA were mixed in 30 uL NEB2.1 buffer to form the Cas12a/gRNA mixture solution. In the meanwhile, 3 uL modifier from the streptavidin conjugation kit (Abcam, ab102921) was mixed with 23 uL 1.3 mg/mL (30 ug) Cry104 antibody gently. Then, the two types of solutions were mixed together and incubated for 3 hours at room temperature. After the incubation, 3 uL quencher from the streptavidin conjugation kit (Abcam, ab102921) was added into the solution to stop the excess conjugation reaction. Finally, 50% glycerol (volume) was added into the prepared antibody-Cas12a/gRNA solution for long time storage in −20° C. freezer.
For comparison, an antibody-Cas12a conjugate was prepared according to the same procedure, where only Cas12a protein was mixed with the Cry104 antibody and modifier (i.e. without gRNA).
The standard CRISPR/Cas12a mixture was first prepared using Cry104-Cas12a/gRNA conjugate. Briefly, 100 pmol of Cry104-Cas12a/gRNA conjugate was added into 3.6 mL 1×NEB 2.1 buffer. Then, 6 μL 100 μM (0.6 nmol) ssDNA linked fluorescent reporter and 36 μL 1 M DTT were added and well mixed to form the final reaction mixture. The prepared reaction mixture was kept on ice before use.
In order to evaluate the trans-cleavage ability of Cry104-Cas12a/gRNA conjugate, 5 μL 1 μM triggering ssDNA was added into 100 μL prepared standard CRISPR/Cas12a mixture and incubated for 120 min at room temperature or 37° C. before fluorescence signal test using ID3 plate reader (Excitation wavelength of 570 nm and emission wavelength of 615 nm).

[5] = target: T1, Cas13a (Leptotrichia wadei, UniProt U2PSH1); assay: Evaluation of trans-cleavage activity of chemically induced CRISPR/Cas13a system
T1 construct: Twinstrep (N); SUMO (N); His tag (only implied by HisTrap purification); host or cells: E. coli
Description: For all trans-cleavage evaluation experiments, the CRISPR/Cas13a reaction mixture was prepared as follows: 10 μL 4 μM (40 μmol) of Cas13a protein was gently mixed with 2 μL 20 μM (40 μmol) gRNA in 1 mL reaction buffer. Then, 6 μL 20 μM (120 μmol) of pre-synthesized ssRNA target (FAM) was added and well mixed to form the standard reaction mixture.
Diverse types of chemicals were first dissolved in MilliQ water to produce high concentration storage solutions, then a certain amount of storage solution was added into the standard CRISPR/Cas13a reaction mixture to realize the certain concentration of chemical involved final reaction mixture.
2 μL 1 μM single strand trigger RNA was applied in 100 μL prepared CRISPR/Cas13a reaction mixture for starting the CRISPR reaction process. ID3 plate reader was applied for the detection of fluorescence readout from FAM modified target with the excitation wavelength of 480 nm and emission wavelength of 520 nm.

T1 sequence (U2PSH1 whole entry): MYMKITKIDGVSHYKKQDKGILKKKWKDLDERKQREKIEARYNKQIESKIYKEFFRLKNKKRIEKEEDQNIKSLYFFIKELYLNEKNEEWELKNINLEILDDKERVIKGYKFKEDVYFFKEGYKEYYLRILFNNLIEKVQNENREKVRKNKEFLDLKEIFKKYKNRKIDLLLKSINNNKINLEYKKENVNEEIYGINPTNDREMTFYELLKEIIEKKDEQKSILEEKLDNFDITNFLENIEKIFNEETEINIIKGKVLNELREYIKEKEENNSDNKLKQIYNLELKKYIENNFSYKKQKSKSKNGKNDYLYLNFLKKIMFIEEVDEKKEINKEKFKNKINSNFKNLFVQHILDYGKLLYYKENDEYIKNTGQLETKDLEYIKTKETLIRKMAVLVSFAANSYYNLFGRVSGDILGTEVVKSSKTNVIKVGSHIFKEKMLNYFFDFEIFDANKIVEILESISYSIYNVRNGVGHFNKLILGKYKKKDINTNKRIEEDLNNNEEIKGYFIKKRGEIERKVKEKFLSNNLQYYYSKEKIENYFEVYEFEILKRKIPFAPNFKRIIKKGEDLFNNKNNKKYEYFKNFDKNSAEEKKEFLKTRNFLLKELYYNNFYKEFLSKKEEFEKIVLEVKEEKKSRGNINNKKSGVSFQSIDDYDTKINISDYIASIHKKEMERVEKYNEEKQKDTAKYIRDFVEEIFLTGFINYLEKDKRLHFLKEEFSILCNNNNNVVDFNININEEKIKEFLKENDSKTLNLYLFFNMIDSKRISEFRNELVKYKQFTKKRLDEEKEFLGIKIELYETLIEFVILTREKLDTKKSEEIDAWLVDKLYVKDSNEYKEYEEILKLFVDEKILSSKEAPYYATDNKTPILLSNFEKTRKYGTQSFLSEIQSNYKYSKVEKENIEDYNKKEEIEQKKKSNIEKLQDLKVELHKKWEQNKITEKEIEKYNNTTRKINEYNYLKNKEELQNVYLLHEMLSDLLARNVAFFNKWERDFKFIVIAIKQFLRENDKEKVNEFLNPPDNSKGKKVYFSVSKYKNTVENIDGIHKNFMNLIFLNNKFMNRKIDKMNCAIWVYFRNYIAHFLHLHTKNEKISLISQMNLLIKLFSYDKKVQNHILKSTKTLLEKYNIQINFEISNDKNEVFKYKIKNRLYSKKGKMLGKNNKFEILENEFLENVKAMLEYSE

Row | Molecule | fluorescence intensity, fold of that in the control [1] [fold] | performance with ssRNA target [1] | optimum concentration leading to the highest trans-cleavage rate ([1]; Cas12a) [mM] | performance of RNA reporter based CRISPR/Cas12a biosensing system [2] | effect in electrophoretic mobility shift assay [3] | reaction time to reach desired fluorescent signal intensity, faster than control [4] [%] | reaction time to reach desired fluorescent signal intensity, faster than control ([4]; 37° C.) [%] | fluorescence signal output, factor versus control reaction ([4]; DTT 10 mM and 37° C.) | fluorescence signal increase of BAC conjugate ([4]; DTT 10 mM, room temperature) [times] | fluorescence signal relative to controls without DTT ([1]; Cy5.5 ssDNA target, 120 min) | optimum concentration [5] [mM] | optimum concentration of non-ionic surfactant ([1]; Cas12a, Texas red DNA reporter) [%]
1 | O=C(O)CCP(CCC(=O)O)CCC(=O)O [TCEP, Tris(2-carboxyethyl)phosphine] | 2.4 | Enhanced performances | 0.5 |  |  |  |  |  |  |  |  | 
2 | O[C@H](CS)[C@H](O)CS (racemic) [DTT, Dithiothreitol] | 1.3 | Enhanced performances | 10 | best performance | increased cleavage of the target DNA | ~50 | ~70 | approximately 2 | ~1.4 | around three | 5 | 
3 | OCCS [2-ME, 2-Mercaptoethanol] | 3.4 |  | 1 |  |  |  |  |  |  |  |  | 
4 | Triton X-100 |  |  |  |  |  |  |  |  |  |  |  | 0.01
